# US20230414607A1, “METHODS OF TREATMENT” (BOW RIVER LLC, priority 2017, published 2023)
# Values joined by “and” are separate entries in the source; they are usually repeats but may differ in a detail not shown here. Identical values can stand only once. Like-named read-outs stand apart in the source and are kept apart here.
# Assays:
# CYP3A4 [1] = biological target: T1, CYP3A4 (Homo sapiens, UniProt P08684); settings: for predicted lurasidone AUC levels (reported as GMR) greater than baseline: human
# Excerpt: Blood plasma levels may be described in various ways, such as area under the plasma concentration curve (AUC) and peak plasma concentration (Cmax). Baseline levels and posaconazole interaction levels for CYP3A4 substrate drugs may be compared using the geometric mean ratio (GMR) of AUC and Cmax. […] GMR is the standard industry and regulatory method for assessing the ratio of change of a pharmacokinetic variable (such as AUC) relative to its own baseline value (e.g., in a patient that was not treated with posaconazole). Once the level of substrate drug (AUC or Cmax) during co-administration with posaconazole and a CYP3A4 substrate drug is known, a function can be derived using conventional pharmacological methods to estimate how the AUC or plasma level of the CYP3A4 substrate drug is expected to decay over time after stopping administration of posaconazole. Such a function can be used to provide a plot of the decay GMR of AUC (or Cmax) of the CYP3A4 substrate drug versus time due to its interaction with posaconazole, based on the stated half-life of posaconazole.
# The expected DDI decay curve can also be calculated for Cmax GMR by substituting Cmax during co-administration for AUC during co-administration in equation 1. As used herein, “expected levels” and “predicted levels” and the like, refer to the AUC or Cmax GMR values calculated using equation 1.
# CYP3A4 [2] = biological target: T1, CYP3A4; settings: in vivo
# Excerpt: The reduced dose of the CYP3A4 substrate drug may be administered with posaconazole, the day after stopping posaconazole, or two or more days (e.g., as described herein) after stopping posaconazole.
# To mitigate this risk, in some embodiments the administration of the CYP3A4 substrate drug is contraindicated not just for co-administration with posaconazole, but the administration is also contraindicated for a period of time (e.g., 2 or more days) after stopping posaconazole beyond the label-prescribed delay of one day (i.e., contraindication for co-administration of the CYP3A4 substrate drug and posaconazole). In some embodiments, the present methods provide for administering the CYP3A4 substrate drug as soon as it is safe to do so, e.g., for time periods exceeding about 1 day, as described herein. […] This accounts for the need to treat the patient with the CYP3A4 substrate drug with no more delay (after stopping posaconazole) than is necessary, so that the risks of leaving such a patient untreated are minimized as much as possible.
# [3] = cited from earlier work
# CYP3A = experiment: Example 2: lurasidone pharmacokinetics during and after posaconazole (drug-drug interaction); format: in vivo; settings: human; for half-life: plasma, oral, read-out: Lurasidone elimination half-life, arithmetic mean ± S.E. (converted)
# [4] = Example 1: pharmacokinetic study with posaconazole and lurasidone in obese subjects; format: in vivo, human
# Experimental: Inventors studied 6 obese male and female subjects (ages 18-50, BMI>35) taking Posaconazole oral tablets (300 mg qd) and Lurasidone (20 mg qd). Body weights and BMI measurements for the 6 subjects are provided below in Table 1.
# Subjects were dosed with Lurasidone alone on Day 1, then subsequently dosed to steady-state Posaconazole levels, with a loading dose of 300 mg twice a day on Day 2 and 300 mg once a day thereafter over a period of 14 days. Posaconazole administration was then stopped and Lurasidone (20 mg qd) administered 2, 4, and 6 days after administration had ceased (studies days 17, 19, and 21 respectively).
# [5] = cited from earlier work; remark: listed apart in the source
# CYP3A4 [6] = biological target: T1, CYP3A4; settings: in vivo; cited from earlier work
# [7] = 2 days after stopping posaconazole
# T1 sequence (P08684 whole entry): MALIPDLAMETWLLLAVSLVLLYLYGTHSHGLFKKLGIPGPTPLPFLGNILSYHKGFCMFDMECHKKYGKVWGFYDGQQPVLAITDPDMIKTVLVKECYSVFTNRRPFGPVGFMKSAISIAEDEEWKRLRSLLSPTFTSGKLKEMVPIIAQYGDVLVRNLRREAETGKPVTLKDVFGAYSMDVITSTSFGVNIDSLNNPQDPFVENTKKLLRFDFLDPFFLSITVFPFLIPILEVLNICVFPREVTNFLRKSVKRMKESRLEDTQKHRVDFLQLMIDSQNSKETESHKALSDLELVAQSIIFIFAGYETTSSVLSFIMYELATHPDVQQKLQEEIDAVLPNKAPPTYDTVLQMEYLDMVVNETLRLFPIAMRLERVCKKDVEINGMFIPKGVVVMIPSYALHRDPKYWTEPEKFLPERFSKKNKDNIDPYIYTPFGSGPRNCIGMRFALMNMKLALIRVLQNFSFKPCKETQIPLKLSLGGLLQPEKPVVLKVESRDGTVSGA
structure (smiles),measurement,setting,value
O=C1[C@@H]2[C@H]3CC[C@H](C3)[C@@H]2C(=O)N1C[C@@H]1CCCC[C@H]1CN1CCN(c2nsc3ccccc23)CC1 [lurasidone],day after stopping posaconazole on which predicted AUC reaches baseline,CYP3A4 [1],~9 days
same,predicted lurasidone AUC levels (reported as GMR) greater than baseline,CYP3A4 [1]; 1 day after stopping posaconazole,about 400%
same,predicted lurasidone AUC levels (reported as GMR) greater than baseline,CYP3A4 [1]; [7],about 300%
same,"actual AUC levels, fold greater than expected",CYP3A4 [2]; [7],about 2 fold
same,"actual AUC levels, fold greater than expected",CYP3A4 [2]; 3 days after stopping posaconazole,2-3 fold
same,"actual AUC levels, fold greater than expected",CYP3A4 [2]; 4 days after stopping posaconazole,2.5-3.5 fold
same,increase in the AUC of lurasidone associated with somnolence,[3]; about 3 fold increase in GMR,about 300%
same,increase in AUC of lurasidone associated with akathisia,[3]; about 4 fold increase in GMR,400%
same,"Corrected Cmax, arithmetic mean ± standard error","CYP3A; in vivo, 20 mg",19.8 ± 4 ng/mL
same,Cmax,"CYP3A; in vivo, 20 mg, Corrected Cmax, arithmetic mean ± standard error",17.1 ± 1.6 ng/mL
same,half-life,"CYP3A; 20 mg, Normal, Day 1 (baseline)",9.4 h
same,half-life,"CYP3A; 20 mg, Normal, Day 20 (posaconazole given Days 4-17)",39 ± 3 h
same,half-life,"CYP3A; 20 mg, Normal, Day 23 (posaconazole given Days 4-17)",48 ± 5 h
same,half-life,"CYP3A; 20 mg, Normal, Day 26 (posaconazole given Days 4-17)",50 ± 7 h
same,half-life,"CYP3A; 20 mg, Normal, Day 30 (posaconazole given Days 4-17)",45 ± 9 h
same,half-life,"CYP3A; 20 mg, Obese, Day 1 (baseline)",10.9 h
same,half-life,"CYP3A; 20 mg, Obese, Day 20 (posaconazole given Days 4-17)",48 ± 4 h
same,half-life,"CYP3A; 20 mg, Obese, Day 23 (posaconazole given Days 4-17)",52 ± 3 h
same,half-life,"CYP3A; 20 mg, Obese, Day 26 (posaconazole given Days 4-17)",61 ± 4 h
same,half-life,"CYP3A; 20 mg, Obese, Day 30 (posaconazole given Days 4-17)",71 ± 5 h
same,half-life,"CYP3A; Normal, Day 14 (with posaconazole)",37 ± 4 h
same,half-life,"CYP3A; Obese, Day 14 (with posaconazole)",38 ± 2 h
same,Lurasidone AUC Ratio relative to Day 1,"[4]; Day 17, 2 days after Posaconazole was stopped, individual obese subjects",2.98 and 1.78
same,AUC,"[4]; both sexes, human, in vivo, 20 mg, Day 17, 2 days after Posaconazole was stopped, individual obese subjects",196 ng·h/mL
same,post-Posaconazole treatment mean AUC ratio values for Lurasidone,"[4]; both, human, in vivo",3.6-4.3 ×
same,"post-Posaconazole treatment mean AUC ratios of Lurasidone, times higher than the baseline","[4]; both, human, in vivo",about 3 times
same,normal baseline AUC: mean AUC0-tau,[5]; 120 mg lurasidone in the fed state after a 350 kcal meal,about 743 ng*h/mL
same,normal baseline Cmax: mean Cmax,[5]; 120 mg lurasidone in the fed state following a 350 kcal meal,about 160 ng/mL
CCOc1cc2ncc(C#N)c(Nc3ccc(OCc4ccccn4)c(Cl)c3)c2cc1NC(=O)/C=C/CN(C)C [neratinib],"AUC co-administration levels, Fold change",CYP3A4 [6],5.81 fold
same,"AUC co-administration levels, Percent of baseline",CYP3A4 [6],581%
same,"Cmax co-administration levels, Fold change",CYP3A4 [6],4.21 fold
same,"Cmax co-administration levels, Percent of baseline",CYP3A4 [6],421%
same,Baseline AUC (% CV),[5]; AUC0-24 single dose 180 mg,734 ± 291 ng·h/mL
same,Baseline AUC (% CV),[5]; AUC0-24 single dose 240 mg,823 ± 291 ng·h/mL
same,Baseline AUC (% CV),[5]; AUC0-24 single dose 320 mg,1582 ± 800 ng·h/mL
same,Baseline Cmax (% CV),[5]; single dose 180 mg,65.9 ± 34.7 ng/mL
same,Baseline Cmax (% CV),[5]; single dose 240 mg,75.9 ± 12.9 ng/mL
same,Baseline Cmax (% CV),[5]; single dose 320 mg,118 ± 47.6 ng/mL
COc1cc2c(cc1O)CCN[C@]21CS[C@@H]2c3c(OC(C)=O)c(C)c4c(c3[C@H](COC1=O)N1[C@@H]2[C@H]2c3c(cc(C)c(OC)c3O)C[C@@H]([C@@H]1O)N2C)OCO4 [trabectedin],"AUC co-administration levels, Fold change",CYP3A4 [6],1.66 fold
same,"AUC co-administration levels, Percent of baseline",CYP3A4 [6],166%
same,"Cmax co-administration levels, Fold change",CYP3A4 [6],1.22 fold
same,"Cmax co-administration levels, Percent of baseline",CYP3A4 [6],122%
same,Baseline AUC (% CV),[5]; AUCinf one dose (24 hr infusion) at 600 ug/m^2,12 (±4.8) ng*h/mL
same,Baseline AUC (% CV),[5]; AUCinf one dose (24 hr infusion) at 900 ug/m^2,36 (±16) ng*h/mL
same,Baseline AUC (% CV),[5]; AUCinf one dose (24 hr infusion) at 1200 ug/m^2,32 (±13) ng*h/mL
same,Baseline AUC (% CV),[5]; AUCinf one dose (24 hr infusion) at 1500 ug/m^2,55 (±25) ng*h/mL
same,Baseline Cmax (% CV),[5]; One dose (24 hr infusion) at 1500 ug/m^2,1.8 (±1.1) ng/ml
CC[C@@H]1CN(C(=O)NCC(F)(F)F)C[C@@H]1c1cnc2cnc3[nH]ccc3n12 [upadacitinib],Baseline AUC (% CV),[5]; AUCinf single dose at 3 mg,103 ± 27.6 ng·h/mL
same,Baseline AUC (% CV),[5]; AUCinf single dose at 6 mg,160 ± 37.6 ng·h/mL
same,Baseline AUC (% CV),[5]; AUCinf single dose at 12 mg,331 ± 49.8 ng·h/mL
same,Baseline AUC (% CV),[5]; AUCinf single dose at 24 mg,615 ± 78.1 ng·h/mL
same,Baseline Cmax (% CV),[5]; single dose at 6 mg,38.9 ± 9.96 ng/mL
same,Baseline Cmax (% CV),[5]; single dose at 12 mg,82.9 ± 12.1 ng/mL
